Experimental data: US20040209934A1, “Protein phosphate inhibitors” (priority 2001, published 2004)
Where two headings read alike, the source gives them in different places. *1 amine or outer side, *2 acyl side, *3 side chain or, on linkers, in order; H or OH if unused. Where a SMILES comes first, the peptide text is derived from it. Bridges are numbered along the chain shown (N, C = ends). [ ]: non-standard residue; d: D form. Adda = CO[C@@H](Cc1ccccc1)[C@@H](C)/C=C(C)/C=C/[C@H](N[*:1])[C@H](C)C(=O)[*:2]; dAsp(3S-Me) = C[C@H](C(=O)[*:3])[C@@H](N[*:1])C(=O)[*:2]; d(γGlu) = O=C(O)[C@@H](CCC(=O)[*:2])N[*:1]; NMeDha = C=C(NC)C(=O)O

Legend:
PP2A = PP2A (Homo sapiens, UniProt P67775); conditions: read-out: PP2A protein phosphatase inhibition (IC50), cited from earlier work
PP2A, sequence (P67775 whole entry): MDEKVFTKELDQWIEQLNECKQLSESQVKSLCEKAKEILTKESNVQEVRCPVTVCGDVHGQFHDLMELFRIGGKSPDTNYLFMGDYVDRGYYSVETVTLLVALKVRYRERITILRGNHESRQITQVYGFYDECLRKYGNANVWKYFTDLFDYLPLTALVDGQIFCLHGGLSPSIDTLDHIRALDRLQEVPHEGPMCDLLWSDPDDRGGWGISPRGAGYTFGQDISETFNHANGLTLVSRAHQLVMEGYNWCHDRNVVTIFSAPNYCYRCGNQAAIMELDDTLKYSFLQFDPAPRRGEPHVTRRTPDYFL

PP1 [1] = target: T1, PP1 (Homo sapiens, UniProt P62136); conditions: read-out: PP1 protein phosphatase inhibition (IC50), cited from earlier work
T1 sequence (P62136 whole entry): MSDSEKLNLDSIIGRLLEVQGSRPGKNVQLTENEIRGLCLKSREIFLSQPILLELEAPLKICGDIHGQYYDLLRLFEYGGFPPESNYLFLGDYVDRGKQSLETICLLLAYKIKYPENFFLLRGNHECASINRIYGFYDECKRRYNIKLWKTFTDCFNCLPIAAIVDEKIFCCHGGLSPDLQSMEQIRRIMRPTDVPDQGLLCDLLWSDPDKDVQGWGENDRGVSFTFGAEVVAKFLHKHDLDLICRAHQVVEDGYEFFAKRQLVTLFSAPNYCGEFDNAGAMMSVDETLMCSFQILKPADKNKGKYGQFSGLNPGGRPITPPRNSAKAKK

[2] = test system: 143B (143BTK-, human oesteosarcoma); assay: cells; conditions: 72 h, read-out: Cytotoxicity IC50, 143B Ostesarcoma
Text: (§1) The cell lines chosen for study include both normal (non-cancer) and tumour-derived cell lines that represent both haematopoietic and solid tumor types with varying cell cycle control mechanisms (ie p53 status); CCD-18Co (normal human colon), L1210 (murine leukaemia, p53 mt), HL60 (human leukaemia, p53 nul), A2780 (human ovarian carcinoma, p53 wt), ADDP (cisplatin resistant A2780 cells, p53 mt), HCT116 (human colon carcinoma, p53 wt), SW480 (human colon carcinoma, p53 wt), WiDr (human colon carcinoma, p53 mt), HT29 (human colon carcinoma, p53 mt) and 143BTK-(human oesteosarcoma) cells.
(§2) The MTT assay can be used assess cytotoxicity. This assay determines cell viability by the ability of mitochondrial dehydrogenase to produce formazan crystals from 3-(4,5-dimethylthiazol-2-yl)2,5-diphenyltetrazolium bromide. The viable cell number/well is directly proportional to the production of formazan, which following solubilization, can be measured spectrophotometrically (540 nm). […] This technique is also used by the NCI(National Cancer Institute, USA) to screen for new anticancer agents. The MTT assay may be performed 72 h after exposure of the cells to varying doses of the phosphatase inhibitors. Since these agents are likely to interfere with the cell cycle it is important to test the cytotoxicity for at least two-three cell divisions.

[3] = test system: A2780 (human ovarian carcinoma, p53 wt); assay: cells; conditions: A2780, 72 h, read-out: Cytotoxicity IC50, A2780 Ovarian
Text: as §1, §2

[4] = test system: HL60 (human leukaemia, p53 nul); assay: cells; type: cell-based
Text: (§3) The MTT assay can be used assess cytotoxicity.

[5] = test system: HT29 (human colon carcinoma, p53 mt); assay: cells; type: cell-based
Text: as §3

[6] = test system: WiDr (human colon carcinoma, p53 mt); assay: cells; type: cell-based
Text: as §3

PP1 [7] = target: T1, PP1; assay: Protein phosphatase assay with [32P]-glycogen phosphorylase a as substrate, PP1; type: biochemical; design: made in house
Experimental: (§4) Protein phosphatase assays were carried out essentially as described (Collins, E.; Sim, A. T. R.; Methods in Molecular Biology 1998, 93, 79-102) using [^32P]-glycogen phosphorylase a as substrate and recombinant PP1 (Bernt, N. Methods in Molecular Biology, 1998, 93, 67-78) or partially purified (chicken skeletal muscle) PP2A catalytic subunits (Mackintosh, C. In Protein Phosphorylation: A Practical Approach, Ed D G Hardie, IRL, 1993). Briefly, enzyme activity was measured at 30 ° C. in a buffer (final volume of […]) containing 50 mM Tris-HCl (pH 7.5), 1 mM EGTA, 0.1 mM EDTA, 5 mM Caffeine, 0.1% mercaptoethanol, 0.3 mg/mL BSA. The concentration of PP1 or PP2A used was such that the reaction was limited to 15% dephosphorylation to ensure linearity. The reaction was started with the addition of […] [^32P]-glycogen phosphorylase a and terminated after 20 minutes by the addition of […] ice-cold 70% TCA. After 10 minutes on ice the sample was centrifuged and a […] aliquot of the supematant was removed for scintillation counting of the [^32p] released during the reaction.

[8] = test system: SW480 (human colon carcinoma, p53 wt); assay: cells; type: cell-based; conditions: Table 3, read-out: Cytotoxicity IC50, SW480
Text: as §3

[9] = test system: L1210 (murine leukaemia, p53 mt); assay: cells; type: cell-based; conditions: Mus musculus, Table 3, read-out: Cytotoxicity IC50, L1210
Text: as §3

[10] = target: partially purified (chicken skeletal muscle) PP2A catalytic subunits (Gallus gallus, UniProt P48463); type: biochemical
partially purified (chicken skeletal muscle) PP2A catalytic subunits, sequence (P48463 whole entry): as the sequence (P67775 whole entry) above, with D2E, V5S, T7A, K21R, K29R, R108P counted along it
Experimental: as §4

HCT116 cells = assay: Cell cycle analysis (propidium iodide, flow cytometry); type: cell-based, human; conditions: Cantharidin 25 μM, 6 h
Text: The distribution of cells into the various phases of the cell cycle can be analysed by measuring the DNA content of the cells, via propidium iodide staining and subsequent flow cytometric analysis. Thus senescent cells (G0) and cells in the first gap (G1) of the cell cycle will have approximately half of the DNA content of cells about to under go mitosis (G2+M), while those cells synthesising DNA (S-phase) will have an intermediary DNA content. Using this technology, the effect of these new drugs on cells in the various phases of the cycle can be determined.

[11] = test system: ten difference cancer cell lines of ovarian, bone, colon and baematopoietic origin; assay: cells; conditions: read-out: Cytotoxicity IC50 values, range over ten cancer cell lines
[12] = naturally occurring toxins, background Table 1
[13] = HL-60, 72 h exposure, background Table 2, read-out: Cytotoxicity IC50, HL60 Leukaemia
[14] = HT-29, 72 h exposure, background Table 2, read-out: Cytotoxicity IC50, HT29 Colon
[15] = 72 h exposure, background Table 2, read-out: Cytotoxicity IC50, WiDr Colon
[16] = Table 2 cantharimides, average of three experiments in triplicate, read-out: PP1 Inhibition IC50
[17] = Table 3 summary, read-out: PP1 Inhibition
[18] = HL-60, Table 3, read-out: Cytotoxicity IC50, HL60
[19] = HT-29, Table 3, read-out: Cytotoxicity IC50, HT29

SMILES: C[C@@](O)(/C=C/[C@H]1CC=CC(=O)O1)[C@@H](C[C@@H](O)\C=C/C=C\C=C\CO)OP(=O)(O)O [Fostriecin]
- IC50 (PP2A; [12]): 3.4 nM
- IC50 (PP1 [1]; [12]): 131 µM

SMILES: C[C@@]12C(=O)OC(=O)[C@]1(C)[C@H]1CC[C@@H]2O1 [drawing 2]
- IC50 [2]: 10 ± 1 µM
- IC50 [3]: 10 ± 2 µM
- IC50 [4, 13]: 10 ± 2 µM
- IC50 [5, 14]: 6.5 ± 0.5 µM
- IC50 [6, 15]: 6.1 ± 0.5 µM

SMILES: O=C1OC(O)[C@@H]2[C@H]1[C@H]1CC[C@@H]2O1 (stereo partly shown)
- IC50 [2]: 454 ± 50 µM
- IC50 [3]: 333 ± 55 µM
- IC50 [4, 13]: 393 ± 103 µM
- IC50 [5, 14]: 14 ± 0.3 µM
- IC50 [6, 15]: 15 ± 3 µM

SMILES: CCOC(=O)C1C(C(=O)O)[C@@H]2CC[C@H]1O2 (stereo partly shown) [R = CH3CH2]
- IC50 (PP1 [7]; read-out: PP1 IC50): 2.96 µM

SMILES: O=C(O)[C@@H](Cc1cnc[nH]1)N1C(=O)C2C3CCC(O3)C2C1=O (stereo partly shown) [Compound 14]
- IC50 (PP1 [7]; [16]): 3.22 ± 0.7 µM
- IC50 (PP1 [7]; [17]): 3.22 ± 0.7 µM
- IC50 [4, 18]: 21 ± 13 µM
- IC50 [5, 19]: 28 ± 9 µM
- IC50 [8]: 32 ± 12 µM
- IC50 [9]: 6 ± 1 µM

SMILES: C[C@H](C(=O)O)N1C(=O)C2C3CCC(O3)C2C1=O (stereo partly shown) [Compound 4]
- IC50 (PP1 [7]; [16]): > 1000 µM
- PP2A inhibition, in words [10]: marginal activity

SMILES: COC[C@@H]([C@H](O)[C@H](O)C(=O)NCC[C@H](C)c1nc(/C=C/C[C@@H]2O[C@]3(C[C@@H](O)[C@@H]2C)O[C@H]([C@H](C[C@H](O)[C@H](C)[C@H](O)[C@H](C)/C=C(C)/C(C)=C/C=C/C(C)=C\C#N)OC)[C@H](OP(=O)(O)O)C3(C)C)co1)N(C)C [Calyculin A]
- IC50 (PP2A; [12]): 0.5 nM
- IC50 (PP1 [1]): 0.002 µM

SMILES: CO[C@H]([C@H](O)CC(=O)[C@@H](C)[C@@H](O)CC[C@@H](C)[C@@H]1O[C@]2(CC[C@@H](C)[C@H](CC[C@H](C)C(C)=O)O2)CC[C@@H]1C)[C@H](OC(=O)C[C@@H](O)C1=C(C)C(=O)OC1=O)C(C)C [Tautomycin]
- IC50 (PP2A; [12]): 1 nM
- IC50 (PP1 [1]; [12]): 0.0003 µM

SMILES: CSCC[C@@H](C(=O)O)N1C(=O)C2C3CCC(O3)C2C1=O (stereo partly shown) [Compound 19]
- IC50 (PP1 [7]; [16]): > 1000 µM

SMILES: O=C(O)C(Cc1ccc(O)cc1)N1C(=O)C2C3CCC(O3)C2C1=O (single isomer, unassigned) [Compound 16]
- IC50 (PP1 [7]; [16]): 101 ± 34 µM

SMILES: O=C(O)C(Cc1ccc(O)cc1)N1C(=O)C2C3CCC(O3)C2C1=O (single isomer, unassigned) [Compound 17]
- IC50 (PP1 [7]; [16]): 570 ± 330 µM

SMILES: CC[C@H](C)[C@@H](C(=O)O)N1C(=O)C2C3CCC(O3)C2C1=O (stereo partly shown) [Compound 11]
- IC50 (PP1 [7]; [16]): > 1000 µM

SMILES: O=C1OC(=O)[C@H]2[C@@H]1[C@@H]1CC[C@H]2O1 [Compound 3, norcantharidin, reference compound]
- IC50 (PP1 [7]; [16]): 5.31 ± 0.36 µM

SMILES: CC(C)C[C@@H](C(=O)O)N1C(=O)C2C3CCC(O3)C2C1=O (stereo partly shown) [Compound 9]
- IC50 (PP1 [7]; [16]): > 1000 µM

SMILES: CC(C)C[C@H](C(=O)O)N1C(=O)C2C3CCC(O3)C2C1=O (stereo partly shown) [Compound 8]
- IC50 (PP1 [7]; [16]): > 1000 µM

SMILES: C=C1[C@@H](O)[C@@H]2O[C@]3(CC[C@H](/C=C/[C@@H](C)[C@@H]4CC(C)=C[C@@]5(O[C@H](C[C@@](C)(O)C(=O)O)CC[C@H]5O)O4)O3)CC[C@H]2O[C@@H]1[C@@H](O)C[C@H](C)[C@H]1O[C@@]2(CCCCO2)CC[C@H]1C [Okadaic acid]
- IC50 (PP2A; [12]): 0.51 nM

SMILES: O=C(O)[C@@H](Cc1ccccc1)N1C(=O)C2C3CCC(O3)C2C1=O (stereo partly shown) [Compound 6]
- IC50 (PP1 [7]; [16]): > 1000 µM

SMILES: CC[C@@H](C)[C@H](C(=O)O)N1C(=O)C2C3CCC(O3)C2C1=O (stereo partly shown) [Compound 10]
- IC50 (PP1 [7]; [16]): > 1000 µM

SMILES: O=C(O)[C@H](Cc1c[nH]c2ccccc12)N1C(=O)C2C3CCC(O3)C2C1=O (stereo partly shown) [Compound 13]
- IC50 (PP1 [7]; read-out: PP1 IC50): 312 ± 153 µM

SMILES: CCCOC(=O)C1C(C(=O)O)[C@@H]2CC[C@H]1O2 (stereo partly shown)
- IC50 [2]: 450 ± 50 µM
- IC50 [3]: 110 ± 10 µM
- IC50 ([4]; HL-60, 72 h, read-out: Cytotoxicity IC50, HL60 Leukaemia): 270 ± 15 µM
- IC50 ([5]; HT-29, 72 h, read-out: Cytotoxicity IC50, HT29 Colon): 15 ± 5 µM
- IC50 ([6]; 72 h, read-out: Cytotoxicity IC50, WiDr Colon): 33 ± 6 µM

SMILES: O=C(O)[C@H](Cc1cnc[nH]1)N1C(=O)C2C3CCC(O3)C2C1=O (stereo partly shown) [Compound 15]
- IC50 (PP1 [7]; [16]): 2.82 ± 0.6 µM
- IC50 (PP1 [7]; [17]): 2.82 ± 0.6 µM
- IC50 [4, 18]: 55 ± 24 µM
- IC50 [5, 19]: 28 ± 10 µM
- IC50 [8]: 61 ± 30 µM
- IC50 [9]: 30 ± 14 µM

SMILES: NC(=O)CC[C@H](C(=O)O)N1C(=O)C2C3CCC(O3)C2C1=O (stereo partly shown) [Compound 18]
- IC50 (PP1 [7]; [16]): 95 ± 5 µM

SMILES: O=C(O)[C@@H](Cc1c[nH]c2ccccc12)N1C(=O)C2C3CCC(O3)C2C1=O (stereo partly shown) [Compound 12]
- IC50 (PP1 [7]; read-out: PP1 IC50): 770 ± 146 µM

SMILES: O=C(O)[C@H](Cc1ccccc1)N1C(=O)C2C3CCC(O3)C2C1=O (stereo partly shown) [Compound 7]
- IC50 (PP1 [7]; [16]): > 1000 µM

SMILES: C=C1C(=O)N[C@H](C)C(=O)N[C@@H](CC(C)C)C(=O)N[C@@H](C(=O)O)[C@H](C)C(=O)N[C@@H](CCCNC(=N)N)C(=O)N[C@@H](/C=C/C(C)=C/[C@H](C)[C@H](Cc2ccccc2)OC)[C@H](C)C(=O)N[C@@H](C(=O)O)CCC(=O)N1C [Microcystin LR] (R[Adda][d(γGlu)][NMeDha][dA]L[dAsp(3S-Me)]-OH; lactam N-7)
- IC50 (PP2A): 0.04 nM
- IC50 (PP1 [1]): 0.0017 µM

SMILES: C[C@@]12C(=O)OC(=O)[C@]1(C)[C@H]1CC[C@@H]2O1 [Compound 1, cantharidin]
- Cell cycle distribution, S-phase (HCT116 cells): significant increased S-phase population
- IC50 [11]: 6 to 18 µM

SMILES: C[C@@H](C(=O)O)N1C(=O)C2C3CCC(O3)C2C1=O (stereo partly shown) [Compound 5]
- IC50 (PP1 [7]; [16]): > 1000 µM
